US3962427A, “Antibiotic nebramycin factor VII” (Eli Lilly and Company, priority 1974, dated 1976)

How the values were obtained:
Pseudomonas species = conditions: cited from earlier work
[1] = system: Streptococcus sp. (group D) 9901; experiment: Agar dilution MIC, Antibiotic Spectrum of Nebramycin VII; format: cell-based
[2] = system: Streptococcus sp. (group D) 9960; experiment: as above; format: cell-based
[3] = system: Enterobater aerogenes EB2; experiment: as above; format: cell-based
[4] = system: Enterobacter aerogenes EB4; experiment: as above; format: cell-based
Enterobacter cloacae EB5 = experiment: as above; format: cell-based
Enterobacter cloacae EB8 = experiment: as above; format: cell-based
Escherichia coli EC2 = experiment: as above; format: cell-based
Escherichia coli EC8 = experiment: as above; format: cell-based
Proteus mirabilis PR3 = experiment: as above; format: cell-based
Proteus mirabilis PR11 = experiment: as above; format: cell-based
Proteus morganii PR1 = experiment: as above; format: cell-based
Proteus morganii PR15 = experiment: as above; format: cell-based
Proteus rettgeri PR2 = experiment: as above; format: cell-based
Proteus rettgeri PR7 = experiment: as above; format: cell-based
Proteus vulgaris PR27 = experiment: as above; format: cell-based
Proteus vulgaris PR28 = experiment: as above; format: cell-based
Providencia sp. 439 = experiment: as above; format: cell-based
[5] = system: Pseudomonas aeruginosa PI1; experiment: as above; format: cell-based
[6] = system: Pseudomonas aeruginosa PI12; experiment: as above; format: cell-based
[7] = system: Pseudomonas aeruginosa PI21; experiment: as above; format: cell-based
[8] = system: Pseudomonas aeruginosa PI23; experiment: as above; format: cell-based
[9] = system: Pseudomonas aeruginosa PI24; experiment: as above; format: cell-based
[10] = system: Pseudomonas aeruginosa PI27; experiment: as above; format: cell-based
[11] = system: Pseudomonas aeruginosa PI37; experiment: as above; format: cell-based
[12] = system: Pseudomonas aeruginosa PS9; experiment: as above; format: cell-based
[13] = system: Pseudomonas aeruginosa PS10; experiment: as above; format: cell-based
[14] = system: Pseudomonas aeruginosa PS14; experiment: as above; format: cell-based
[15] = system: Pseudomonas aeruginosa PS15; experiment: as above; format: cell-based
[16] = system: Pseudomonas aeruginosa PS34; experiment: as above; format: cell-based
Pseudomonas cepacia 3189 = experiment: as above; format: cell-based
Pseudomonas cepacia 5629 = experiment: as above; format: cell-based
[17] = system: Pseudomonas maltophilia 438; experiment: as above; format: cell-based
[18] = system: Pseudomonas pseudomallei 121; format: cell-based; conditions: agar dilution
[19] = system: Pseudomonas solanacearum X185; format: cell-based; conditions: agar dilution
Serratia marcescens SE3 = experiment: Agar dilution MIC, Antibiotic Spectrum of Nebramycin VII; format: cell-based
gram negative organisms = experiment: Antibacterial activity of nebramycin VII in words; format: cell-based
Solubility = format: physicochemical
[20] = system: Staphylococcus aureus 3055; experiment: Agar dilution MIC, Antibiotic Spectrum of Nebramycin VII; conditions: Staphylococcus aureus 3055, Penicillin G sensitive strain
[21] = system: Staphylococcus aureus 3074; experiment: as above; conditions: Staphylococcus aureus 3074, Penicillin G resistant strain
[22] = system: Staphylococcus aureus 3130; experiment: as above; conditions: Staphylococcus aureus 3130, Methicillin resistant strain

SMILES: CN[C@@H]1[C@@H](O[C@H]2O[C@H](CO)[C@@H](N)[C@H](O)[C@H]2O)OC2C[C@@H](N)[C@@H](O[C@H]3[C@H](O)[C@@H](O)[C@H](N)C[C@@H]3N)OC2[C@@H]1O (some centres unmarked) [Nebramycin II]
- antibiotic activity against Pseudomonas species (Pseudomonas species): antibiotic activity

SMILES: CN[C@@H]1[C@@H](O[C@H]2O[C@H](CO)[C@@H](N)[C@H](O)[C@H]2O)O[C@H]2[C@H](O)[C@@H](N)[C@@H](O[C@H]3[C@H](O)[C@@H](O)[C@H](N)C[C@@H]3N)O[C@@H]2[C@@H]1O [Nebramycin VII]
- Minimum Inhibitory Concentration [1]: > 256 µg/mL
- Minimum Inhibitory Concentration [2]: 128 µg/mL
- Minimum Inhibitory Concentration [3]: 8 µg/mL
- Minimum Inhibitory Concentration [4]: 8 µg/mL
- Minimum Inhibitory Concentration (Enterobacter cloacae EB5): 8 µg/mL
- Minimum Inhibitory Concentration (Enterobacter cloacae EB8): 8 µg/mL
- Minimum Inhibitory Concentration (Escherichia coli EC2): 16 µg/mL
- Minimum Inhibitory Concentration (Escherichia coli EC8): 16 µg/mL
- Minimum Inhibitory Concentration (Proteus mirabilis PR3): 8 µg/mL
- Minimum Inhibitory Concentration (Proteus mirabilis PR11): 16 µg/mL
- Minimum Inhibitory Concentration (Proteus morganii PR1): 8 µg/mL
- Minimum Inhibitory Concentration (Proteus morganii PR15): 32 µg/mL
- Minimum Inhibitory Concentration (Proteus rettgeri PR2): 32 µg/mL
- Minimum Inhibitory Concentration (Proteus rettgeri PR7): 16 µg/mL
- Minimum Inhibitory Concentration (Proteus vulgaris PR27): 8 µg/mL
- Minimum Inhibitory Concentration (Proteus vulgaris PR28): 8 µg/mL
- Minimum Inhibitory Concentration (Providencia sp. 439): 32 µg/mL
- Minimum Inhibitory Concentration [5]: 64 µg/mL
- Minimum Inhibitory Concentration [6]: 16 µg/mL
- Minimum Inhibitory Concentration [7]: > 256 µg/mL
- Minimum Inhibitory Concentration [8]: > 256 µg/mL
- Minimum Inhibitory Concentration [9]: 256 µg/mL
- Minimum Inhibitory Concentration [10]: 64 µg/mL
- Minimum Inhibitory Concentration [11]: > 256 µg/mL
- Minimum Inhibitory Concentration [12]: 16 µg/mL
- Minimum Inhibitory Concentration [13]: 8 µg/mL
- Minimum Inhibitory Concentration [14]: 8 µg/mL
- Minimum Inhibitory Concentration [15]: 8 µg/mL
- Minimum Inhibitory Concentration [16]: 4 µg/mL
- Minimum Inhibitory Concentration (Pseudomonas cepacia 3189): 256 µg/mL
- Minimum Inhibitory Concentration (Pseudomonas cepacia 5629): 128 µg/mL
- Minimum Inhibitory Concentration [17]: 16 µg/mL
- Minimum Inhibitory Concentration [18]: 32 µg/mL
- Minimum Inhibitory Concentration [19]: 4 µg/mL
- Minimum Inhibitory Concentration (Serratia marcescens SE3): 8 µg/mL
- activity against the gram negative organisms (gram negative organisms): high degree of activity
- solubility in the higher alcohols and most common organic solvents (Solubility; higher alcohols and most common organic solvents): substantially insoluble
- solubility in methanol (Solubility; methanol): slightly soluble
- solubility in water (Solubility; water): water soluble
- toxicity (Toxicity in words): relatively non-toxic
- Minimum Inhibitory Concentration [20]: 8 µg/mL
- Minimum Inhibitory Concentration [21]: 4 µg/mL
- Minimum Inhibitory Concentration [22]: 4 µg/mL
